Consider 18 compounds from patent US20230405002A1, “COMBINATIONS OF DIACYLGLYCEROL ACYLTRANSFERASE 2 INHIBITORS AND ACETYL-COA CARBOXYLASE INHIBITOR” (Pfizer Inc., priority 2020, published 2023).

One series has as its target human DGAT2 (hDGAT2) (Homo sapiens (Human), UniProt Q96PD7). The experiment in a line: In vitro DGAT2 assay, determination of IC50 values. Conditions: geometric mean; hDGAT2 membrane fraction. It counts as biochemical.
The nature of series [1]: Determination of pKa (capillary electrophoresis). Conditions: most basic pKa, mean.
A further series has as its system human liver microsomes. The experiment in a line: Intrinsic clearance in human liver microsomes. Conditions: human liver microsome assay, 1 μM. On the technique in general: Liver microsomes are vesicles of endoplasmic reticulum, rich in cytochrome P450 enzymes.
Another series deals with human hepatocytes. The experiment in a line: High throughput intrinsic clearance in human hepatocytes. Conditions: high throughput human hepatocyte assay, 1 μM.
Series [2] addresses DGAT2 in human hepatocytes (Homo sapiens (Human), UniProt Q96PD7). The experiment in a line: Determination of IC50 values for DGAT2 inhibitors in human hepatocytes. Type of series: cell-based. The following applies: geometric mean; cryopreserved human hepatocytes, DGAT1 inhibitor 3 μM present. As to the method: For evaluation of the effects of DGAT2 inhibitors in a cell-based setting, cryopreserved human hepatocytes (Lot DOO, Celsis, Baltimore, MD) were thawed and plated onto type I collagen-coated plates according to the manufacturer's instructions. After 18 hours overnight recovery period, the cells were overlayed with media containing 250 μg/mL Geltrex Basement Membrane Matrix (Thermo Fisher). The following day, media was aspirated and replaced with serum-free Williams Media E (Thermo Fisher) containing 400 μM sodium dodecanoate (Sigma-Aldrich, St. Louis, MO) and 2 mM GlutaMAX (Thermo Fisher). […] DGAT2 inhibitors were then added to the desired final concentration. After a 15 minute preincubation, 0.2 μCi [^14C(U)]-glycerol (Perkin Elmer) was added to each well followed by a 3 hour incubation. At this point the media was removed, and the cells lysed via orbital shaking in isopropyl alcohol: tetrahydrofuran (9:1) for 15 minutes prior to centrifugation at 3000 rpm for 10 minutes. Radiolabeled lipids were resolved using a solvent system by thin layer chromatography with the solvent consisting of hexanes: diethyl ether: glacial acetic acid (75:23:2, v/v/v). After separation, radiolabeled lipids were visualized using the Typhoon 9500 phosphorimaging system (GE). The half maximal inhibitory concentrations (IC50 values) were determined by nonlinear regression analysis of the % inhibition dose response curve using GraphPad Prism (GraphPad Software, Inc., La Jolla, CA).
Table 12 below provides the IC50 values of selected Examples for inhibition of DGAT2 in human hepatocytes in accordance with the above-described assay. Results are reported as geometric mean IC50 values, with the number of replicates (n) shown.

Where a name gives a salt, the structure may show the parent alone.

human DGAT2 (hDGAT2), sequence (Q96PD7 whole entry): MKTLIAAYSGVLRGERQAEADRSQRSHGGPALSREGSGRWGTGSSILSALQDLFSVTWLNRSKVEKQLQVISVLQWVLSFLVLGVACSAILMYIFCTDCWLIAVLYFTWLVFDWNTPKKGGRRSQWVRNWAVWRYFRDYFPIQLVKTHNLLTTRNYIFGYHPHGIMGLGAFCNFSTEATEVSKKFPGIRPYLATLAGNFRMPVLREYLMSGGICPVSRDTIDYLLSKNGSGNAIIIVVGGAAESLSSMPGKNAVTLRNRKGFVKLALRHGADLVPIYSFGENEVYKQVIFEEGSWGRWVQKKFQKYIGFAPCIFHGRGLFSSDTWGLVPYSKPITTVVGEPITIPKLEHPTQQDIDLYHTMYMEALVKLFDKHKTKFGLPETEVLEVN
DGAT2 in human hepatocytes, sequence (Q96PD7 whole entry): as above
Experimental for human liver microsomes: The high throughput human microsomal stability assay was performed in a 384-well format (Di, L., et al. 2012, Eur. J. Med. Chem., 57, 441-448). All liquid handling and incubation were conducted with a Biomek FX (Beckman Coulter, Inc., Indianapolis, IN), equipped with one 3-position Mecour heated deck positions. Pooled human liver microsomes of 50 donors (Lot: HLM-103) were purchased from BD Biosciences (Bedford, MA). Each incubation contained test compound (1 μM), human liver microsomes (0.25 μM CYP protein equivalent to 0.806 mg/mL protein concentration), NADPH 20.9 mM, MgCl2 (3.3 mM) and potassium phosphate buffer (100 mM at pH 7.4). The final reaction volume was 45 μL containing 0.1% DMSO. The incubations were conducted at 37° C. At various time points (e.g. 1, 4, 7, 12, 20, 25, 45 and 60 min), cold acetonitrile with mass spectrometry (MS) internal standard (Example 39A, WO1999/57125) was added to quench the reaction. The plates were centrifuged at 3000 rpm for 1 min at 4° C. […] The plates were sealed and subsequently analyzed using LC-MS/MS. Control plates were prepared in the same manner without adding the NADPH cofactor to monitor any non-CYP/FMO catalyzed decline. […] The data are presented as the mean+/− standard deviation, with the number of replicates (n) shown.

The IC50 is the concentration at which inhibition is half-maximal. Read a high IC50 as a need for much substance. On to `CCOc1cccnc1Oc1cncc(-c2ncc(C(=O)NC3CCCNC3C)cn2)c1` (mixture of isomers) [Example 23, 2-{5-[(3-ethoxypyridin-2-yl)oxy]pyridin-3-yl}-N-(2-methylpiperidin-3-yl)pyrimidine-5-carboxamide, trifluoroacetate salt, mixture of stereoisomers], for which 14000 nM corresponded to half-maximal inhibition on human DGAT2 (hDGAT2) (IC50).

On to `CCOc1cccnc1Oc1cncc(-c2ncc(C(=O)N[C@H]3CC[C@H](C(F)(F)F)NC3)cn2)c1` (racemic) [Example 8, rac-2-{5-[(3-ethoxypyridin-2-yl)oxy]pyridin-3-yl}-N-[(3R,6S)-6-(trifluoromethyl)piperidin-3-yl]pyrimidine-5-carboxamide or rac-2-{5-[(3-ethoxypyridin-2-yl)oxy]pyridin-3-yl}-N-[(3R,6R)-6-(trifluoromethyl)piperidin-3-yl]pyrimidine-5-carboxamide], for which the “Basic pKa” value in series [1] amounted to 5.3.

In the case of `CCOc1cccnc1Oc1cncc(-c2ncc(C(=O)N[C@H]3CC[C@H](C(F)(F)F)NC3)cn2)c1` (racemic) [Example 9, rac-2-{5-[(3-ethoxypyridin-2-yl)oxy]pyridin-3-yl}-N-[(3R,6S)-6-(trifluoromethyl)piperidin-3-yl]pyrimidine-5-carboxamide or rac-2-{5-[(3-ethoxypyridin-2-yl)oxy]pyridin-3-yl}-N-[(3R,6R)-6-(trifluoromethyl)piperidin-3-yl]pyrimidine-5-carboxamide], the “CLint (+/− STD Dev)” value in the series on human liver microsomes is above 290 µL/min/mg.

On to `CCOc1cccnc1Oc1cncc(-c2ncc(C(=O)N[C@H]3CNCC[C@H]3C)cn2)c1` (racemic) [Example 20, rac-2-{5-[(3-ethoxypyridin-2-yl)oxy]pyridin-3-yl}-N-[(3R,4R)-4-methylpiperidin-3-yl]pyrimidine-5-carboxamide, trifluoroacetate salt], for which, at human DGAT2 (hDGAT2), 2100 nM corresponded to half-maximal inhibition (IC50).

The compound `CCOc1cccnc1Oc1cncc(-c2ncc(C(=O)N[C@H]3CNCCC3(F)F)cn2)c1` (single isomer, unassigned) [Example 15, N-[(3S)-4,4-difluoropiperidin-3-yl]-2-{5-[(3-ethoxypyridin-2-yl)oxy]pyridin-3-yl}pyrimidine-5-carboxamide, trifluoroacetate salt or N-[(3R)-4,4-difluoropiperidin-3-yl]-2-{5-[(3-ethoxypyridin-2-yl)oxy]pyridin-3-yl}pyrimidine-5-carboxamide, trifluoroacetate salt] gave an IC50 on human DGAT2 (hDGAT2) of 3300 nM.

For the compound `CCOc1cccnc1Oc1cncc(-c2ncc(C(=O)N[C@H]3CNCCC3(F)F)cn2)c1` (single isomer, unassigned) [Example 16, N-[(3S)-4,4-difluoropiperidin-3-yl]-2-{5-[(3-ethoxypyridin-2-yl)oxy]pyridin-3-yl}pyrimidine-5-carboxamide, trifluoroacetate salt or N-[(3R)-4,4-difluoropiperidin-3-yl]-2-{5-[(3-ethoxypyridin-2-yl)oxy]pyridin-3-yl}pyrimidine-5-carboxamide, trifluoroacetate salt], the “CLint (+/− STD Dev)” value with human liver microsomes (trifluoroacetate salt) was 17 µL/min/mg. In addition, the “CLint (+/− Std Dev)” value in the series on human hepatocytes (trifluoroacetate salt) is listed as 4.7 +/− 1.4 μL/min/10^6 cells.

As for `CCOc1cccnc1Oc1cncc(-c2ncc(C(=O)N[C@@H]3CNCC(F)(F)C3)cn2)c1` (single isomer, unassigned) [Example 18, N-[(3S)-5,5-difluoropiperidin-3-yl]-2-{5-[(3-ethoxypyridin-2-yl)oxy]pyridin-3-yl}pyrimidine-5-carboxamide or N-[(3R)-5,5-difluoropiperidin-3-yl]-2-{5-[(3-ethoxypyridin-2-yl)oxy]pyridin-3-yl}pyrimidine-5-carboxamide], the half-inhibitory concentration (IC50) against human DGAT2 (hDGAT2) was found to be 140 nM; in series [2], 20 nM.

In turn, `CCOc1cccnc1Oc1cncc(-c2ncc(C(=O)N[C@@H]3CNCC(F)(F)C3)cn2)c1` (single isomer, unassigned) [Example 19, N-[(3S)-5,5-difluoropiperidin-3-yl]-2-{5-[(3-ethoxypyridin-2-yl)oxy]pyridin-3-yl}pyrimidine-5-carboxamide or N-[(3R)-5,5-difluoropiperidin-3-yl]-2-{5-[(3-ethoxypyridin-2-yl)oxy]pyridin-3-yl}pyrimidine-5-carboxamide] gave an IC50 against human DGAT2 (hDGAT2) of 240 nM. For the same compound, the “CLint (+/− STD Dev)” value in the series on human liver microsomes came to 34 ± 1.9 µL/min/mg. Besides, the “CLint (+/− Std Dev)” value in the series on human hepatocytes was 14 +/− 1.4 μL/min/10^6 cells. For the same compound, the “Basic pKa” value in series [1] is 5.2.

On to `CCOc1cccnc1Oc1cncc(-c2ncc(C(=O)NC3CCC(C(F)(F)F)NC3)cn2)c1` (single isomer, unassigned; ent-1) [Example 10, 2-{5-[(3-ethoxypyridin-2-yl)oxy]pyridin-3-yl}-N-[6-(trifluoromethyl)piperidin-3-yl]pyrimidine-5-carboxamide, trifluoroacetate salt, ENT-1], for which, at human DGAT2 (hDGAT2), the IC50 stood at 39 nM. The “Basic pKa” value in series [1] worked out at 4.7.

In turn, `CCOc1cccnc1Oc1cncc(-c2ncc(C(=O)NC3CCC(C(F)(F)F)NC3)cn2)c1` (single isomer, unassigned; ent-2) [Example 11, 2-{5-[(3-ethoxypyridin-2-yl)oxy]pyridin-3-yl}-N-[6-(trifluoromethyl)piperidin-3-yl]pyrimidine-5-carboxamide, trifluoroacetate salt, ENT-2] registered an IC50 against human DGAT2 (hDGAT2) of 4.4 nM. In addition, the “CLint (+/− STD Dev)” value in the series with human liver microsomes was above 290 µL/min/mg. The “CLint (+/− Std Dev)” value with human hepatocytes was 38 +/− 2.0 μL/min/10^6 cells.

On human DGAT2 (hDGAT2), `CCOc1cc(F)cnc1Oc1cncc(-c2ncc(C(=O)N[C@@H]3CNCC[C@@H]3F)cn2)c1.O=C(O)C(F)(F)F.O=C(O)C(F)(F)F` [Example 1, 2-{5-[(3-Ethoxy-5-fluoropyridin-2-yl)oxy]pyridin-3-yl}-N-[(3R,4S)-4-fluoropiperidin-3-yl]pyrimidine-5-carboxamide, bis(trifluoroacetate) salt] showed an IC50 of 5.8 nM. The “CLint (+/− STD Dev)” value with human liver microsomes was below 7 µL/min/mg. In addition, the “CLint (+/− Std Dev)” value in the series with human hepatocytes is listed as <2.7 +/− 0.72 μL/min/10^6 cells. Also, in series [1], the “Basic pKa” value is recorded as 7.7.

Take `CCOc1cc(F)cnc1Oc1cncc(-c2ncc(C(=O)N[C@@H]3CNC[C@@H](F)C3)cn2)c1` [Example 2, 2-{5-[(3-Ethoxy-5-fluoropyridin-2-yl)oxy]pyridin-3-yl}-N-[(3S,5S)-5-fluoropiperidin-3-yl]pyrimidine-5-carboxamide]: the IC50 at human DGAT2 (hDGAT2) was 8.6 nM; in series [2] it was 4.1 nM.

Compound `CCOc1cccnc1Oc1cncc(-c2ncc(C(=O)N[C@@H]3CNCC[C@H]3F)cn2)c1` [Example 5, 2-{5-[(3-Ethoxypyridin-2-yl)oxy]pyridin-3-yl}-N-[(3R,4R)-4-fluoropiperidin-3-yl]pyrimidine-5-carboxamide] showed an IC50 at human DGAT2 (hDGAT2) of 110 nM. The “CLint (+/− STD Dev)” value in the series on human liver microsomes was below 7 µL/min/mg.

`CCOc1cc(F)cnc1Oc1cncc(-c2ncc(C(=O)N[C@@H]3CNCC[C@H]3F)cn2)c1` [Example 6, 2-{5-[(3-Ethoxy-5-fluoropyridin-2-yl)oxy]pyridin-3-yl}-N-[(3R,4R)-4-fluoropiperidin-3-yl]pyrimidine-5-carboxamide]: the results for the IC50 (against human DGAT2 (hDGAT2); in series [2]) were 80 nM and 2.4 nM, respectively.

Turning to `CCOc1cccnc1Oc1cncc(-c2ncc(C(=O)N[C@H]3CNC[C@H](F)C3)cn2)c1` [Example 7, 2-{5-[(3-ethoxypyridin-2-yl)oxy]pyridin-3-yl}-N-[(3R,5R)-5-fluoropiperidin-3-yl]pyrimidine-5-carboxamide, trifluoroacetate salt], the concentration for half-maximal inhibition (IC50) against human DGAT2 (hDGAT2) was determined as 42 nM.

With `CCOc1cccnc1Oc1cncc(-c2ncc(C(=O)N[C@H]3CNCC[C@@H]3F)cn2)c1` [Example 12, 2-{5-[(3-ethoxypyridin-2-yl)oxy]pyridin-3-yl}-N-[(3S,4S)-4-fluoropiperidin-3-yl]pyrimidine-5-carboxamide, trifluoroacetate salt], inhibition against human DGAT2 (hDGAT2) was half-maximal at 590 nM (IC50). In addition, the “CLint (+/− STD Dev)” value in the series with human liver microsomes was below 7 µL/min/mg.

Take `CCOc1cc(F)cnc1Oc1cncc(-c2ncc(C(=O)N[C@H]3CNCC[C@@H]3F)cn2)c1` [Example 13, 2-{5-[(3-ethoxy-5-fluoropyridin-2-yl)oxy]pyridin-3-yl}-N-[(3S,4S)-4-fluoropiperidin-3-yl]pyrimidine-5-carboxamide, formate salt]: the IC50 on human DGAT2 (hDGAT2) amounted to 57 nM; in series [2] it was 3.8 nM.

For `CCOc1cccnc1Oc1cncc(-c2ncc(C(=O)NC3CNCC(F)(F)C3)cn2)c1` (stereo not shown) [Example 17, N-(5,5-difluoropiperidin-3-yl)-2-{5-[(3-ethoxypyridin-2-yl)oxy]pyridin-3-yl}pyrimidine-5-carboxamide], half-maximal inhibition on human DGAT2 (hDGAT2) (IC50) required 230 nM.
